Experimental data as given in paper PMC6211276, “Computer-aided molecular design of pyrazolotriazines targeting glycogen synthase kinase 3” (Journal of Enzyme Inhibition and Medicinal Chemistry, 2018).

Legend:
GSK-3β [1] = target: T1, GSK-3β (Homo sapiens, UniProt P49841); assay: Inhibition of GSK-3β (Kinase-Glo luminescent assay); assay type: biochemical; parameters: purchased Millipore (Millipore Ibérica SAU); details: for GSK-3 inhibition at a fixed compound concentration: fixed compound concentration of 10 μM; for IC50: mean of three independent determinations, 1 μM ATP
T1 sequence (P49841 whole entry): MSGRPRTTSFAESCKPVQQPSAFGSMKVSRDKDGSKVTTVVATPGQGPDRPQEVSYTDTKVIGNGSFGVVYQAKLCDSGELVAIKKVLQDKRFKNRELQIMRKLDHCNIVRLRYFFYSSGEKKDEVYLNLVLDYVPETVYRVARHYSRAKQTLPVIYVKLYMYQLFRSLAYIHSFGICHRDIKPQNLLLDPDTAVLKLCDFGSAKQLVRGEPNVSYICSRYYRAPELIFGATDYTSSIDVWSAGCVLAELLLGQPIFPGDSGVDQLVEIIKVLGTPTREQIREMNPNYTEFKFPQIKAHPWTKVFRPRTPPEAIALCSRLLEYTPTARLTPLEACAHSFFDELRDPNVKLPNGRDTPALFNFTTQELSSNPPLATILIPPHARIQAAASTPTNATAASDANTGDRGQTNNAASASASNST
Procedure: Human recombinant GSK-3β and the pre-phosphorylated polypeptide substrate were purchased from Millipore (Millipore Ibérica SAU). Kinase-Glo Luminescent Kinase Assay was obtained from Promega (Promega Biotech Ibérica, SL)[29]. ATP and all other reagents were from Sigma Aldrich (St. Louis, MO). Assay buffer contained 50 mM HEPES (pH 7.5), 1 mM EDTA, 1 mM EGTA, and 15 mM magnesium acetate.
The method of Baki et al. was followed to analyse the inhibition of GSK-3β[30]. Kinase-Glo assays were performed in assay buffer using black 96-well plates. In a typical assay, 10 μL (10 μM) of test compound (dissolved in dimethyl sulfoxide [DMSO] at 1 mM concentration and diluted in advance in assay buffer to the desired concentration) and 10 μL (20 ng) of enzyme were added to each well followed by 20 μL of assay buffer containing 25 μM substrate and 1 μM ATP. […] After 30 min incubation at 30 °C, the enzymatic reaction was stopped with 40 μL of Kinase-Glo reagent. Glow-type luminescence was recorded after 10 min using a FLUOstar Optima (BMG Labtechnologies GmbH, Offenburg, Germany) multimode reader. The activity is proportional to the difference of the total and consumed ATP. The inhibitory activities were calculated based on maximal activities measured in the absence of inhibitor.

[2] = In vitro parallel artificial membrane permeability assay (PAMPA-BBB); details: for Papp at 4 h: pig, PAMPA, pH 7.4; for BBB prediction: predictive penetration in the CNS from PAMPA-BBB Pe; for ability to cross the BBB by passive permeation: prediction from PAMPA-BBB Pe
Procedure: Prediction of the brain penetration was evaluated using a parallel artificial membrane permeability assay (PAMPA). Ten commercial drugs, phosphate buffer saline solution at pH 7.4 (PBS), ethanol, and dodecane were purchased from Sigma Aldrich, Across organics and Fluka. […] Filter PDVF membrane units (diameter 30 mm, pore size 0.45 μm) from Symta were used to filter the samples. A 96-well plate UV, (Thermoscientific, Varioskan Lux multimode microplate reader) was used for the UV measurements. […] Then 100 μL of this compound stock solution was taken, and 1400 μL of ethanol and 3500 μL of PBS pH 7.4 buffer were added to reach 30% of ethanol concentration in the experiment. These solutions were filtered. The acceptor 96-well microplate was filled with 180 μL of PBS:ethanol (70:30). The donor 96-well plate was coated with 4 μL of porcine brain lipid in dodecane (20 mg mL^−1), and after 5 min, 180 μL of each compound solution was added. Then 1−2 mg of every compound to be determined for their ability to pass the brain barrier were dissolved in 1500 μL of ethanol and 3500 μL of PBS pH 7.4 buffer, filtered, and then added to the donor 96-well plate. […] During this time, the compounds diffused from the donor plate through the brain lipid membrane into the acceptor plate. After incubation, the donor plate was removed. The concentration of compounds and commercial drugs in the acceptor and the donor wells was determined by UV plate reader. Every sample was analysed at three to five wavelengths, in three wells and in three independent runs. […] Ten quality control compounds (previously mentioned) of known BBB permeability were included in each experiment to validate the analysis set.

GSK-3β [3] = target: T1, GSK-3β; assay: Kinetic studies on GSK-3β (ADP-Glo Kinase Assay, varying ATP); assay type: biochemical; details: inhibitor at 0.5 and 1 μM, ATP 1 to 50 μM, GS-2 constant at 12.5 μM; Lineweaver–Burk
Procedure: To investigate the inhibitory mechanism of compounds 5 on GSK-3β, several kinetic experiments were performed using the ADP-Glo Kinase Assay. Kinetic experiments varying both ATP (from 1 to 50 μM) and the inhibitor (at 0.5 and 1 μM) concentrations were performed, while the concentration of GS-2 was kept constant at 12.5 μM.

SH-SY5Y cells = assay: Okadaic acid-induced tau hyperphosphorylation cell model (MTT cell viability); assay type: cell-based, human; details: for cell viability (MTT test) in OA-induced neurodegeneration cell model: compound 10 µM for 1 h, then OA 30 nM for 24 h
Procedure: Human SH-SY5Y cells were grown in DMEM supplemented with 10% FBS and 1% penicillin/streptomycin at 37 °C and 5% CO2 in an incubator. SH-SY5Y cells were seeded onto 96-well plate at 60.000 cells per well. 48 h later, cells were pre-incubated with the compounds at the desired concentration for 1 h and after that time okadaic acid (OA) (Sigma Aldrich, catalogue no: 09381) was added at a concentration of 30 nM and incubated for another 24 h. Afterwards, cells were incubated with 0.5 mg mL^−1 MTT solution for at least 4 h at 37 °C and 5% CO2. Then culture media was removed and the formazan crystals attached to the bottom of the plate were dissolved with 200 µL of DMSO. Finally, UV-absorbance was measured at 595 nm in a microplate reader (Varioskan Flash Microplate reader, Thermo Scientific).

[4] = PAMPA-BBB, reported permeability; cited from earlier work

| Papp at 4 h [2] [×10⁻⁶ cm/s] | Structure (SMILES) | BBB prediction [2] | melting point | IC50 (GSK-3β [1]) [nM] | also measured |
| --- | --- | --- | --- | --- | --- |
| – | O=c1[nH]nnc2c1cnn2-c1ccccc1 [4a] | – | – | – | GSK-3 inhibition at a fixed compound concentration (GSK-3β [1]): inactive |
| – | O=c1[nH]nnc2c1cnn2-c1ccc(F)cc1 [4e] | – | – | – | GSK-3 inhibition at a fixed compound concentration (GSK-3β [1]): inactive |
| 1.1 ± 0.6 | CCOC(=O)c1c2nn[nH]c(=O)c2nn1-c1ccccc1 [5a, ethyl 4-oxo-6-phenyl-4,6-dihydro-3H-pyrazolo[4,3-d][1,2,3]triazine-7-carboxylate] | CNS− | 191.5 to 193 °C | 4000 ± 200 | – |
| 1.6 ± 0.5 | CCOC(=O)c1c2nn[nH]c(=O)c2nn1-c1ccc(OC)cc1 [5c, ethyl 6-(4-methoxyphenyl)-4-oxo-4,6-dihydro-3H-pyrazolo[4,3-d][1,2,3]triazine-7-carboxylate] | CNS+/− | 194 °C (dec.) | 1700 ± 300 | – |
| 2.9 ± 0.7 | CCOC(=O)c1c2nn[nH]c(=O)c2nn1-c1ccc(Cl)cc1 [5e, ethyl 6-(4-chlorophenyl)-4-oxo-4,6-dihydro-3H-pyrazolo[4,3-d][1,2,3]triazine-7-carboxylate] | CNS+/− | 198 °C (dec.) | 3300 ± 300 | ability to cross the BBB by passive permeation [2]: in the limit of a positive prediction |
| 10.4 ± 0.1 | CNCCCN1c2ccccc2CCc2ccccc21 [Desipramine, reference compound] | – | – | – | – |
| 1.1 ± 0.6 | CCn1cc(C(=O)O)c(=O)c2cc(F)c(N3CCNCC3)nc21 [Enoxacine, reference compound] | – | – | – | – |
| – | C=C1[C@@H](O)[C@@H]2O[C@]3(CC[C@H](/C=C/[C@@H](C)[C@@H]4CC(C)=C[C@@]5(O[C@H](C[C@@](C)(O)C(=O)O)CC[C@H]5O)O4)O3)CC[C@H]2O[C@@H]1[C@@H](O)C[C@H](C)[C@H]1O[C@@]2(CCCCO2)CC[C@H]1C [OA, okadaic acid, reference compound] | – | – | – | decrease in cell viability (SH-SY5Y cells; OA at 30 nM, MTT): higher than 70% |
| – | CN1C(C(=O)Nc2ccccn2)=C(O)c2ccccc2S1(=O)=O [Piroxicam] | – | – | – | Pe bibli. [4]: 2.5 10^−6 cm s^−1 |
| 8.4 ± 0.3 | CN(C)CCCN1c2ccccc2Sc2ccccc21 [Promazine, reference compound] | – | – | – | Pe bibli. [4]: 8.8 10^−6 cm s^−1 |
| – | Cn1sc(=O)n(Cc2ccccc2)c1=O [TDZD-8, reference compound] | – | – | – | cell viability (MTT test) in OA-induced neurodegeneration cell model (SH-SY5Y cells): increase the cell viability |

| Structure (SMILES) | Papp at 4 h [2] [×10⁻⁶ cm/s] | BBB prediction [2] | melting point | IC50 (GSK-3β [1]) [nM] | also measured |
| --- | --- | --- | --- | --- | --- |
| CCOC(=O)c1c2nn[nH]c(=O)c2nn1-c1ccc(C)cc1 [5b, ethyl 4-oxo-6-(p-tolyl)-4,6-dihydro-3H-pyrazolo[4,3-d][1,2,3]triazine-7-carboxylate] | 2.3 ± 0.3 | CNS+/− | 193 to 196 °C | 900 ± 100 | type of inhibition on GSK-3 (GSK-3β [3]): ATP-competitive; cell viability (MTT test) in OA-induced neurodegeneration cell model (SH-SY5Y cells): able to increase the cell viability |
| CCOC(=O)c1c2nn[nH]c(=O)c2nn1-c1ccc(Br)cc1 [5f, ethyl 6-(4-bromophenyl)-4-oxo-4,6-dihydro-3H-pyrazolo[4,3-d][1,2,3]triazine-7-carboxylate] | 3.2 ± 0.1 | CNS+ (CNS + when they present a permeability >3.1 × 10^−6 cm s^−1) | 195 °C (dec.) | 1400 ± 400 | ability to cross the BBB by passive permeation [2]: would be able to cross the BBB by passive permeation; cell viability (MTT test) in OA-induced neurodegeneration cell model (SH-SY5Y cells): able to increase the cell viability |
| CCOC(=O)c1c2nn[nH]c(=O)c2nn1-c1ccc(I)cc1 [5g, ethyl 6-(4-iodophenyl)-4-oxo-4,6-dihydro-3H-pyrazolo[4,3-d][1,2,3]triazine-7-carboxylate] | 5 ± 1 | CNS+ (CNS + when they present a permeability >3.1 × 10^−6 cm s^−1) | 198 °C (dec.) | 800 ± 200 | ability to cross the BBB by passive permeation [2]: would be able to cross the BBB by passive permeation; cell viability (MTT test) in OA-induced neurodegeneration cell model (SH-SY5Y cells): able to increase the cell viability |
| Cn1c(=O)c2c(ncn2C)n(C)c1=O [Caffeine, reference compound] | 1.1 ± 0.4 | – | – | – | – |
